# Reference: patent EP3030673B1, “SCREENING AND IDENTIFICATION OF RESISTANT MARKERS IN CRUSTACEAN” (priority 2013, dated 2015)
# Like-named read-outs stand apart in the source and are kept apart here.
# Assays:
# Format in all cases: in vivo, Lepeophtheirus salmonis
# [1] = tested on: LsGulen (pyrethroid sensitive strain)
# Source text: (§1) In order to investigate the inheritance and mechanism of pyrethroid resistance in L. salmonis, two strains (sensitive and resistant) and their reciprocal hybrids were used for a two-generation breeding experiment complimented with bioassays to measure tolerance (Fig. 2). The pyrethroid sensitive strain (hereon also referred to as LsGulen) was collected in June 2006 from newly slaughtered rainbow trout from Gulen in western Norway. The pyrethroid resistant strain (hereon also referred to as LsVikna) was collected in February 2009 from a salmon farm in Vikna, North Trøndelag, Norway. The resistant strain was collected on the basis of suspected reduced sensitivity to pyrethroids due to the fact that there had been reported a treatment failure on the farm from which it was collected. This was subsequently confirmed in bioassays with LsGulen as sensitive control.
# (§2) Each strain, including both types of hybrids obtained in example 1 were quantified in their tolerance of deltamethrin at sampling points 1 and 2 representing the F1 and F2 generations for the hybrids (Fig. 1 and 2). Bioassays were performed according to standard guidelines (SEARCH Consortium, 2006, Sea lice resistance to chemotherapeutants: A handbook in resistance management. 2 ed.), with minor modifications. Only adult male lice were used for the bioassay, which after sampling (at 55 or 56 dpi) had been incubated overnight in running seawater (ca. 10 °C). The 30 min exposure to the prepared deltamethrin concentration was also carried out at ca. 10 °C, and higher concentrations than those described in the given protocol were included (Table S3). After exposure to deltamethrin, the lice were kept in running seawater (24 h at ca. 10 °C) until evaluation of the bioassays. […] EC50 values were calculated using probit analysis (PoloPlus 2.0; LeOra Software, CA, USA). Table 3a. […]
# [2] = tested on: LsVikna (pyrethroid resistant strain); test: Deltamethrin bioassay on adult male sea lice, pyrethroid resistant strain
# Source text: as §1, §2
# [3] = tested on: LsHybridV (LsVikna as its maternal strain); test: Deltamethrin bioassay on adult male sea lice, hybrid strain with resistant maternal strain
# Experimental: In order to hybridise the lice strains for the inheritance experiment, the parental strains were first synchronised and multiplied up in numbers by simultaneously infecting 20 Atlantic salmon with copepods. In total, 1000 copepods per strain were added. At 32 days post infection (dpi), all salmon were anaesthetised and approximately half of the lice were carefully removed using tweezers. At this stage, lice were predominantly preadult 2 females and adult males, with a few percent adult females and preadult 2 males. The lice removed from the salmon were sexed, and then used to create the reciprocal hybrid strains. This was achieved by combining 4-5 females from the resistant strain and 4-5 males from the sensitive strain (LsHybridV), and 4-5 females from the sensitive strain and 4-5 males from the resistant strain (LsHybridG). Only preadult 2 females were used. These combinations were each placed into 2 replicate tanks in order to make two hybrid strains (4 groups and 8 tanks at this stage). At 67-68 dpi, all lice were removed from the four strains. Egg strings were removed from adult females and incubated in containers containing a single strain each. The number of adult lice, and harvested egg strings varied, but all were incubated (Table 2). Table 2. Number of egg strings collected from each strain. Egg strings from replicate tanks were pooled. Most egg strings were part of a pair.
# The subsequent generation (F2, Fig. 2) were both produced using the general procedure described above, although the hybrid strains were only crossed back to themselves to create multiple generation-hybrids. Collection of egg strings, which marked the establishment of a new generation, was done at 55 and 56 dpi respectively. Salmon that hosted the previous generation were re-used for reinfection with the next generation, but hosted only the same experimental strain.
# Each strain, including both types of hybrids obtained in example 1 were quantified in their tolerance of deltamethrin at sampling points 1 and 2 representing the F1 and F2 generations for the hybrids (Fig. 1 and 2). Bioassays were performed according to standard guidelines (SEARCH Consortium, 2006, Sea lice resistance to chemotherapeutants: A handbook in resistance management. 2 ed.), with minor modifications. Only adult male lice were used for the bioassay, which after sampling (at 55 or 56 dpi) had been incubated overnight in running seawater (ca. 10 °C). The 30 min exposure to the prepared deltamethrin concentration was also carried out at ca. 10 °C, and higher concentrations than those described in the given protocol were included (Table S3). After exposure to deltamethrin, the lice were kept in running seawater (24 h at ca. 10 °C) until evaluation of the bioassays. […] EC50 values were calculated using probit analysis (PoloPlus 2.0; LeOra Software, CA, USA). Table 3a. Deltamethrin bioassays performed on sampling set 1
structure (smiles),measurement,setting,value
"CC1(C)[C@H](C(=O)O[C@H](C#N)c2cccc(Oc3ccccc3)c2)[C@@H]1C=C(Br)Br [Deltamethrin, deltamethrin]",mortality,"[1]; above 1 ppb, sensitive strain",100%
same,% Inactive,"[1]; sampling set 1, F15, fish tank 04, dose 0.1 ppb",0%
same,% Inactive,"[1]; sampling set 1, F15, fish tank 04, dose 0.3 ppb",48%
same,% Inactive,"[1]; sampling set 1, F15, fish tank 04, dose 1 ppb",100%
same,% Inactive,"[1]; sampling set 1, F15, fish tank 04, dose 3 ppb",100%
same,% Inactive,"[1]; sampling set 1, F15, fish tank 04, dose 6 ppb",100%
same,% Inactive,"[1]; sampling set 1, F15, fish tank 04, dose 12 ppb",100%
same,% Inactive,"[1]; sampling set 1, F15, fish tank 10, dose 0.1 ppb",0%
same,% Inactive,"[1]; sampling set 1, F15, fish tank 10, dose 0.3 ppb",50%
same,% Inactive,"[1]; sampling set 1, F15, fish tank 10, dose 1 ppb",100%
same,% Inactive,"[1]; sampling set 1, F15, fish tank 10, dose 3 ppb",100%
same,% Inactive,"[1]; sampling set 1, F15, fish tank 10, dose 6 ppb",100%
same,% Inactive,"[1]; sampling set 1, F15, fish tank 10, dose 12 ppb",100%
same,% Inactive,"[1]; sampling set 2, F16, fish tank 03, dose 0.1 ppb",5%
same,% Inactive,"[1]; sampling set 2, F16, fish tank 03, dose 0.3 ppb",48%
same,% Inactive,"[1]; sampling set 2, F16, fish tank 03, dose 0.5 ppb",86%
same,% Inactive,"[1]; sampling set 2, F16, fish tank 03, dose 1 ppb",100%
same,% Inactive,"[1]; sampling set 2, F16, fish tank 03, dose 3 ppb",100%
same,% Inactive,"[1]; sampling set 2, F16, fish tank 03, dose 6 ppb",100%
same,% Inactive,"[1]; sampling set 2, F16, fish tank 04, dose 0.1 ppb",8%
same,% Inactive,"[1]; sampling set 2, F16, fish tank 04, dose 0.3 ppb",55%
same,% Inactive,"[1]; sampling set 2, F16, fish tank 04, dose 0.5 ppb",95%
same,% Inactive,"[1]; sampling set 2, F16, fish tank 04, dose 1 ppb",100%
same,% Inactive,"[1]; sampling set 2, F16, fish tank 04, dose 3 ppb",100%
same,% Inactive,"[1]; sampling set 2, F16, fish tank 04, dose 6 ppb",100%
same,% Inactive,"[1]; sampling set 2, F16, fish tank 04, dose 12 ppb",100%
same,survival of the bioassay,"[2]; above 1 ppb, resistant strain",survived the bioassay
same,% Inactive,"[2]; sampling set 1, F6, fish tank 05, dose 0.1 ppb",0%
same,% Inactive,"[2]; sampling set 1, F6, fish tank 05, dose 0.3 ppb",0%
same,% Inactive,"[2]; sampling set 1, F6, fish tank 05, dose 1 ppb",12%
same,% Inactive,"[2]; sampling set 1, F6, fish tank 05, dose 3 ppb",27%
same,% Inactive,"[2]; sampling set 1, F6, fish tank 05, dose 6 ppb",35%
same,% Inactive,"[2]; sampling set 1, F6, fish tank 05, dose 12 ppb",41%
same,% Inactive,"[2]; sampling set 1, F6, fish tank 09, dose 0.1 ppb",4%
same,% Inactive,"[2]; sampling set 1, F6, fish tank 09, dose 0.3 ppb",0%
same,% Inactive,"[2]; sampling set 1, F6, fish tank 09, dose 1 ppb",10%
same,% Inactive,"[2]; sampling set 1, F6, fish tank 09, dose 3 ppb",19%
same,% Inactive,"[2]; sampling set 1, F6, fish tank 09, dose 6 ppb",23%
same,% Inactive,"[2]; sampling set 1, F6, fish tank 09, dose 12 ppb",28%
same,% Inactive,"[2]; sampling set 2, F7, fish tank 08, dose 0.1 ppb",0%
same,% Inactive,"[2]; sampling set 2, F7, fish tank 08, dose 0.3 ppb",0%
same,% Inactive,"[2]; sampling set 2, F7, fish tank 08, dose 0.5 ppb",0%
same,% Inactive,"[2]; sampling set 2, F7, fish tank 08, dose 1 ppb",0%
same,% Inactive,"[2]; sampling set 2, F7, fish tank 08, dose 3 ppb",6%
same,% Inactive,"[2]; sampling set 2, F7, fish tank 08, dose 6 ppb",18%
same,% Inactive,"[2]; sampling set 2, F7, fish tank 08, dose 12 ppb",0%
same,% Inactive,"[2]; sampling set 2, F7, fish tank 08, dose 20 ppb",39%
same,survival of the bioassay,"[3]; above 1 ppb, maternal hybrid strain of the resistant strain",survived the bioassay
same,% Inactive,"[3]; sampling set 1, F1, fish tank 02, dose 0.1 ppb",0%
same,% Inactive,"[3]; sampling set 1, F1, fish tank 02, dose 0.3 ppb",0%
same,% Inactive,"[3]; sampling set 1, F1, fish tank 02, dose 1 ppb",5%
same,% Inactive,"[3]; sampling set 1, F1, fish tank 02, dose 3 ppb",13%
same,% Inactive,"[3]; sampling set 1, F1, fish tank 02, dose 6 ppb",5%
same,% Inactive,"[3]; sampling set 1, F1, fish tank 02, dose 12 ppb",31%
same,% Inactive,"[3]; sampling set 1, F1, fish tank 06, dose 0.1 ppb",0%
same,% Inactive,"[3]; sampling set 1, F1, fish tank 06, dose 0.3 ppb",0%
same,% Inactive,"[3]; sampling set 1, F1, fish tank 06, dose 1 ppb",7%
same,% Inactive,"[3]; sampling set 1, F1, fish tank 06, dose 3 ppb",2%
same,% Inactive,"[3]; sampling set 1, F1, fish tank 06, dose 6 ppb",9%
same,% Inactive,"[3]; sampling set 1, F1, fish tank 06, dose 12 ppb",32%
same,% Inactive,"[3]; sampling set 2, F2, fish tank 06, dose 0.1 ppb",0%
same,% Inactive,"[3]; sampling set 2, F2, fish tank 06, dose 0.3 ppb",0%
same,% Inactive,"[3]; sampling set 2, F2, fish tank 06, dose 0.5 ppb",0%
same,% Inactive,"[3]; sampling set 2, F2, fish tank 06, dose 1 ppb",0%
same,% Inactive,"[3]; sampling set 2, F2, fish tank 06, dose 3 ppb",16%
same,% Inactive,"[3]; sampling set 2, F2, fish tank 06, dose 6 ppb",14%
same,% Inactive,"[3]; sampling set 2, F2, fish tank 06, dose 12 ppb",21%
same,% Inactive,"[3]; sampling set 2, F2, fish tank 06, dose 20 ppb",40%
same,% Inactive,"[3]; sampling set 2, F2, fish tank 09, dose 0.1 ppb",14%
same,% Inactive,"[3]; sampling set 2, F2, fish tank 09, dose 0.3 ppb",0%
same,% Inactive,"[3]; sampling set 2, F2, fish tank 09, dose 0.5 ppb",3%
same,% Inactive,"[3]; sampling set 2, F2, fish tank 09, dose 1 ppb",5%
same,% Inactive,"[3]; sampling set 2, F2, fish tank 09, dose 3 ppb",0%
same,% Inactive,"[3]; sampling set 2, F2, fish tank 09, dose 6 ppb",19%
same,% Inactive,"[3]; sampling set 2, F2, fish tank 09, dose 12 ppb",8%
same,% Inactive,"[3]; sampling set 2, F2, fish tank 09, dose 20 ppb",54%
